Where two headings read alike, the source gives them in different places.
Test system: IRF3
Experiment: IRF3 activation assay in THP-1 Dual cells
Assay type: cell-based
Conditions: Homo sapiens, read-out: THP1 IRF3 EC50
Protocol: THP-1 Dual Cells (Invivogen) were maintained in RPMI1640 medium with addition of 10% FBS, 100 μg/ml zeocin, 10 μg/ml blasticidin. Cells were added in a 96-well flat bottom assay plate at 100,000 per well in 100 μL complete RPMI medium. Test compounds were prepared by serial dilution in complete RPMI medium and 100 μL test compounds were transferred to each corresponding well. The assay plate was incubated at 37° C., 5% CO2 for 24 hours. After the overnight incubation, 20 μL of the culture supernatants were collected, followed by addition of 180 μL of QUANTI-Blue (Invivogen) to assess IRF3 activity. The amount of IRF3 activation was assessed by reading the absorbance at 620-655 nm with a microplate reader 2 hours later. The culture supernatant from the untreated THP-1 cells was used as the negative control. EC50 determination was performed by fitting the curve of percent control activity versus the log of the compound concentration using the GraphPad Prism 6.0 software.

Work on CCn1nc(C)cc1C(=O)Nc1nc2cc(C(N)=O)cc(OCCCOC(=O)c3cc(C)nn3CC)c2n1C/C=C/Cn1c2nc(-c3cc(C)nn3CC)ncc2c2cc(C(N)=O)cc(OCCCOC)c21 [Example S21, (E)-3-((5-carbamoyl-1-(4-(6-carbamoyl-2-(1-ethyl-3-methyl-1H-pyrazol-5-yl)-8-(3-methoxypropoxy)-9H-pyrimido[4,5-b]indol-9-yl)but-2-en-1-yl)-2-(1-ethyl-3-methyl-1H-pyrazole-5-carboxamido)-1H-benzo[d]imidazol-7-yl)oxy)propyl 1-ethyl-3-methyl-1H-pyrazole-5-carboxylate] yielded an EC50 (THP-1, Table 4A) of at most 0.1 µM, an EC50 (THP-1, Table 4B) of under 0.2 µM and an EC50 (THP-1, Table 4C) of at most 0.05 µM.
CCn1nc(C)cc1C(=O)Nc1nc2cc(C(N)=O)cc(OCCCO)c2n1C/C=C/Cn1c2nc(-c3cc(C)nn3CC)ncc2c2cc(C(N)=O)cc(OCCCOC)c21 [Example S22, (E)-9-(4-(5-carbamoyl-2-(1-ethyl-3-methyl-1H-pyrazole-5-carboxamido)-7-(3-hydroxypropoxy)-1H-benzo[d]imidazol-1-yl)but-2-en-1-yl)-2-(1-ethyl-3-methyl-1H-pyrazol-5-yl)-8-(3-methoxypropoxy)-9H-pyrimido[4,5-b]indole-6-carboxamide] showed an EC50 (THP-1, Table 4A) of at most 0.1 µM, an EC50 (THP-1, Table 4B) of under 0.2 µM and an EC50 (THP-1, Table 4C) of at most 0.05 µM.
CCn1nc(C)cc1C(=O)Nc1nc2cc(C(N)=O)cc(C)c2n1C/C=C/Cn1c2ccc(C(N)=O)cc2c2cnc(-c3cc(C)nn3CC)c(F)c21 [Example S23, (E)-5-(4-(5-carbamoyl-2-(1-ethyl-3-methyl-1H-pyrazole-5-carboxamido)-7-methyl-1H-benzo[d]imidazol-1-yl)but-2-en-1-yl)-3-(1-ethyl-3-methyl-1H-pyrazol-5-yl)-4-fluoro-5H-pyrido[4,3-b]indole-8-carboxamide] was tested, and the EC50 (THP-1, Table 4A) was 0.1 to 0.5 µM, the EC50 (THP-1, Table 4B) was under 0.2 µM and the EC50 (THP-1, Table 4C) was 0.05 to 0.2 µM.
Compound CCn1nc(C)cc1C(=O)Nc1nc2cc(C(N)=O)cc(C)c2n1C/C=C/Cn1c2ccc(C(N)=O)cc2c2cc(F)c(-c3cc(C)nn3CC)nc21 [Example S24, (E)-9-(4-(5-carbamoyl-2-(1-ethyl-3-methyl-1H-pyrazole-5-carboxamido)-7-methyl-1H-benzo[d]imidazol-1-yl)but-2-en-1-yl)-2-(1-ethyl-3-methyl-1H-pyrazol-5-yl)-3-fluoro-9H-pyrido[2,3-b]indole-6-carboxamide] has an EC50 (THP-1, Table 4A) of at most 0.1 µM, an EC50 (THP-1, Table 4B) of under 0.2 µM and an EC50 (THP-1, Table 4C) of at most 0.05 µM.
For CCn1nc(C)cc1C(=O)Nc1nc2cc(C(N)=O)cc(C)c2n1C/C=C/Cn1c2ccc(C(N)=O)cc2c2cc(C#N)c(-c3cc(C)nn3CC)nc21 [Example S25, (E)-9-(4-(5-carbamoyl-2-(1-ethyl-3-methyl-1H-pyrazole-5-carboxamido)-7-methyl-1H-benzo[d]imidazol-1-yl)but-2-en-1-yl)-3-cyano-2-(1-ethyl-3-methyl-1H-pyrazol-5-yl)-9H-pyrido[2,3-b]indole-6-carboxamide], the EC50 (THP-1, Table 4A) was 0.1 to 0.5 µM, the EC50 (THP-1, Table 4B) was under 1 µM and the EC50 (THP-1, Table 4C) was 0.2 to 0.5 µM.
In the case of CCn1nc(C)cc1C(=O)Nc1nc2cc(C(N)=O)cc(C)c2n1C/C=C/Cn1c2ccc(C(N)=O)cc2c2cnc(-c3cc(C)nn3CC)c(C#N)c21 [Example S26, (E)-5-(4-(5-carbamoyl-2-(1-ethyl-3-methyl-1H-pyrazole-5-carboxamido)-7-methyl-1H-benzo[d]imidazol-1-yl)but-2-en-1-yl)-4-cyano-3-(1-ethyl-3-methyl-1H-pyrazol-5-yl)-5H-pyrido[4,3-b]indole-8-carboxamide], the EC50 (THP-1, Table 4A) is reported as 0.5 to 1 µM, the EC50 (THP-1, Table 4B) is reported as under 1 µM and the EC50 (THP-1, Table 4C) is reported as 0.5 to 1 µM.
In the case of CCn1nc(C)cc1C(=O)Nc1nc2cc(C(N)=O)cc(OCCCN3CCOCC3)c2n1C/C=C/Cn1c2nc(-c3cc(C)nn3CC)ncc2c2cc(C(N)=O)cc(OCCCOC)c21 [Example S27, (E)-9-(4-(5-carbamoyl-2-(1-ethyl-3-methyl-1H-pyrazole-5-carboxamido)-7-(3-morpholinopropoxy)-1H-benzo [d]imidazol-1-yl)but-2-en-1-yl)-2-(1-ethyl-3-methyl-1H-pyrazol-5-yl)-8-(3-methoxypropoxy)-9H-pyrimido[4,5-b]indole-6-carboxamide], the EC50 (THP-1, Table 4A) is reported as at most 0.1 µM, the EC50 (THP-1, Table 4B) is reported as under 0.2 µM and the EC50 (THP-1, Table 4C) is reported as at most 0.05 µM.
CCn1nc(C)cc1C(=O)Nc1nc2cc(C(N)=O)cc(O)c2n1C/C=C/Cn1c2nc(-c3cc(C)nn3CC)ncc2c2cc(C(N)=O)cc(OCCCOC)c21 [Example S28, (E)-9-(4-(5-carbamoyl-2-(1-ethyl-3-methyl-1H-pyrazole-5-carboxamido)-7-hydroxy-1H-benzo[d]imidazol-1-yl)but-2-en-1-yl)-2-(1-ethyl-3-methyl-1H-pyrazol-5-yl)-8-(3-methoxypropoxy)-9H-pyrimido[4,5-b]indole-6-carboxamide] showed an EC50 (THP-1, Table 4A) of at most 0.1 µM, an EC50 (THP-1, Table 4B) of under 0.2 µM and an EC50 (THP-1, Table 4C) of at most 0.05 µM.
CCn1nc(C)cc1-c1ncc2c3cc(C(N)=O)cc(OC)c3n(C/C=C/Cn3c4nc(-c5cc(C)nn5CC)ncc4c4cc(C(N)=O)cc(OC)c43)c2n1 [Example S29, (E)-9,9′-(but-2-ene-1,4-diyl)bis(2-(1-ethyl-3-methyl-1H-pyrazol-5-yl)-8-methoxy-9H-pyrimido[4,5-b]inclole-6-carboxamide)] was tested, and the EC50 (THP-1, Table 4A) was at most 0.1 µM.
CCn1nc(C)cc1C(=O)Nc1nc2cc(C(N)=O)cc(C)c2n1C/C=C/Cn1c(NC(=O)c2cc(C)nn2CC)nc2cc(C(N)=O)c3ccoc3c21 [Example S31, (E)-1-(4-(5-carbamoyl-2-(1-ethyl-3-methyl-1H-pyrazole-5-carboxamido)-7-methyl-1H-benzo[d]imidazol-1-yl)but-2-en-1-yl)-2-(1-ethyl-3-methyl-1H-pyrazole-5-carboxamido)-1H-benzofuro[6,7-d]imidazole-5-carboxamide] gave an EC50 (THP-1, Table 4A) of at most 0.1 µM.
For CCn1nc(C)cc1C(=O)Nc1nc2cc(C(N)=O)cc(OC)c2n1C/C=C/Cn1c(NC(=O)c2cc(C)nn2CC)nc2cc(C(N)=O)cc(OCCCNC(=O)CCN)c21 [Example S32, (E)-7-(3-(3-aminopropanamido)propoxy)-1-(4-(5-carbamoyl-2-(1-ethyl-3-methyl-1H-pyrazole-5-carboxamido)-7-methoxy-1H-benzo[d]imidazol-1-yl)but-2-en-1-yl)-2-(1-ethyl-3-methyl-1H-pyrazole-5-carboxamido)-1H-benzo [d]imidazole-5-carboxamide], the EC50 (THP-1, Table 4A) was at most 0.1 µM.
CCn1nc(C)cc1C(=O)Nc1nc2cc(C(N)=O)cc(OC)c2n1C/C=C/Cn1c(NC(=O)c2cc(C)nn2CC)nc2cc(C(N)=O)cc(OCCCNC(C)=O)c21 [Example S33, (E)-7-(3-acetamidopropoxy)-1-(4-(5-carbamoyl-2-(1-ethyl-3-methyl-1H-pyrazole-5-carboxamido)-7-methoxy-1H-benzo[d]imidazol-1-yl)but-2-en-1-yl)-2-(1-ethyl-3-methyl-1H-pyrazole-5-carboxamido)-1H-benzo[d]imidazole-5-carboxamide] was tested, and the EC50 (THP-1, Table 4A) was at most 0.1 µM.
For CCn1nc(C)cc1C(=O)Nc1nc2cc(C(N)=O)cc(OCCCC#N)c2n1C/C=C/Cn1c2nc(-c3cc(C)nn3CC)ncc2c2cc(C(N)=O)cc(OCCCOC)c21 [Example S34, (E)-9-(4-(5-carbamoyl-7-(3-cyanopropoxy)-2-(1-ethyl-3-methyl-1H-pyrazole-5-carboxamido)-1H-benzo[d]imidazol-1-yl)but-2-en-1-yl)-2-(1-ethyl-3-methyl-1H-pyrazol-5-yl)-8-(3-methoxypropoxy)-9H-pyrimido[4,5-b]indole-6-carboxamide], the EC50 (THP-1, Table 4C) was at most 0.05 µM.

— US11596692B1 (Incyte Corporation, priority 2018, dated 2023)
